Among the data in patent US20240025906A1 (NEURON23, INC., priority 2022, published 2024) are IC50 and Kd values, retold here.

pIC50, pKd: −log10 of the molar value. Counter-ions that a name gives are not always drawn.

In test [1] the test system is JAK1/TYK2 pSTAT5 (Tyr694/699) in THP-1 cell line. The experiment in a line: IFNa-stimulated JAK1/TYK2 pSTAT5 (Tyr694/699) inhibition cellular assay, AlphaLISA. Type of test: cell-based. Particulars: Homo sapiens; THP-1 cells, IFNa-stimulated, AlphaLISA (Assay B); read-out: Cellular THP1_IFNa-pSTATS_IC50. Summed up: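 The readout is AlphaLISA signal at 615 nm for phospho-STAT5 in THP-1 lysates after IFNa stimulation (added at 100 ng/mL, 30 min, 37 °C). Cells had compound for 1 h beforehand across eight 6-fold concentrations up to 10000 nM final. IC50s are 4PL fits with bottom and Hill slope constrained.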
(In general: In Alpha technology, singlet oxygen from a donor bead excites a nearby acceptor bead.)

The target of the next test is T1, TYK2 JH2 (Homo sapiens, UniProt P29597).
T1 construct: purchased DiscoverX (KINOMEscan KdELECT service); host or cells: E. coli BL21-derived (T7 phage display) or HEK-293
T1 sequence (P29597 589-875 limits assumed): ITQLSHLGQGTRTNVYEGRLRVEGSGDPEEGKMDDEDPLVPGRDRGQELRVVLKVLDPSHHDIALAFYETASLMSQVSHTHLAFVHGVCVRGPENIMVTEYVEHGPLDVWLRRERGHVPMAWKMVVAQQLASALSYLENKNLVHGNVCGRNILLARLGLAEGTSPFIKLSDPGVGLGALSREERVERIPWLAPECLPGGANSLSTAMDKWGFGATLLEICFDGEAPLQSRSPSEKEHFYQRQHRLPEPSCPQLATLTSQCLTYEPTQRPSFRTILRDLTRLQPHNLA
Put plainly: TYK2 JH2 binding assay (KINOMEscan KdELECT competitive binding). Particulars: TYK2 JH2 domain, KINOMEscan KdELECT (Assay A); read-out: Biochemical TYK2_JH2_Kd. The gist of the method:
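Beads carrying a biotinylated ligand were mixed with tagged JH2 kinase and compound (11 points, 3-fold steps, 0.9% DMSO) and shaken 1 h at room temperature. After washing, kinase was released with 0.5 μM untagged ligand over 30 min and measured by qPCR to derive Kd.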

Turning to `CNc1ncc(-c2ccccn2)c2cc(NC(=O)C3CC3)ncc12` [Example 4, N-(8-(methylamino)-5-(pyridin-2-yl)-2,7-naphthyridin-3-yl)cyclopropanecarboxamide], the pIC50 in test [1] is less than 6.30. The pKd on TYK2 JH2 is no less than 7.00.
Regarding `CNc1ncc(-c2ncccc2OC)c2cc(NC(=O)C3CC3)ncc12` [Example 5, N-(5-(3-methoxypyridin-2-yl)-8-(methylamino)-2,7-naphthyridin-3-yl)cyclopropanecarboxamide], the pIC50 in test [1] was less than 6.30. Also, the pKd at TYK2 JH2 is 6.00 to 7.00.
For `CNc1ncc(-c2ccnn2C)c2cc(NC(=O)C3CC3)ncc12` [Example 6, N-(5-(1-methyl-1H-pyrazol-5-yl)-8-(methylamino)-2,7-naphthyridin-3-yl)cyclopropanecarboxamide], the pIC50 in test [1] is less than 6.30. The pKd on TYK2 JH2 is no less than 7.00.
Take `CNc1ncc(-c2ccccc2OC)c2cc(NC(=O)C3CC3)ncc12` [Example 7, N-(5-(2-methoxyphenyl)-8-(methylamino)-2,7-naphthyridin-3-yl)cyclopropanecarboxamide]: in test [1], the pIC50 is less than 6.30. In addition, the pKd on TYK2 JH2 is 6.00 to 7.00.
For the molecule `CNc1ncc(-c2ccncc2OC)c2cc(NC(=O)C3CC3)ncc12` [Example 8, N-(5-(3-methoxypyridin-4-yl)-8-(methylamino)-2,7-naphthyridin-3-yl)cyclopropanecarboxamide], the pIC50 in test [1] was less than 6.30. At TYK2 JH2, the pKd was no less than 7.00.
Taken in the same sequence, the figures for `CNc1ncc(-c2ccncc2)c2cc(NC(=O)C3CC3)ncc12` [Example 9] were less than 6.30 and no less than 7.00.
Consider `CNc1ncc(-c2cc(C)no2)c2cc(NC(=O)C3CC3)ncc12` [Example 10, N-(8-(methylamino)-5-(3-methylisoxazol-5-yl)-2,7-naphthyridin-3-yl)cyclopropanecarboxamide], for which the pIC50 in test [1] was less than 6.30. Besides, the pKd at TYK2 JH2 was no less than 7.00.
Taken in the same sequence, the figures for `CCc1ccccc1-c1cnc(NC)c2cnc(NC(=O)C3CC3)cc12` [Example 11, N-(5-(2-ethylphenyl)-8-(methylamino)-2,7-naphthyridin-3-yl)cyclopropanecarboxamide] were less than 6.30 and 6.00 to 7.00.
For `CNc1ncc(-c2cccc(OC)c2)c2cc(NC(=O)C3CC3)ncc12` [Example 12, N-(5-(3-methoxyphenyl)-8-(methylamino)-2,7-naphthyridin-3-yl)cyclopropanecarboxamide] the same measures were less than 6.30 and no less than 7.00.
`CNc1ncc(-c2ccc(OC)cc2)c2cc(NC(=O)C3CC3)ncc12` [Example 13, N-(5-(4-methoxyphenyl)-8-(methylamino)-2,7-naphthyridin-3-yl)cyclopropanecarboxamide formate]: the pIC50 in test [1] is less than 6.30. Also, the pKd at TYK2 JH2 is no less than 7.00.
For `CNc1ncc(-c2cccnc2)c2cc(NC(=O)C3CC3)ncc12` [Example 14, N-(8-(methylamino)-5-(pyridin-3-yl)-2,7-naphthyridin-3-yl)cyclopropanecarboxamide], the pIC50 in test [1] was less than 6.30. Moreover, the pKd at TYK2 JH2 is no less than 7.00.
On to `CNc1ncc(-c2ccccc2Cl)c2cc(NC(=O)C3CC3)ncc12` [Example 15, N-(5-(2-chlorophenyl)-8-(methylamino)-2,7-naphthyridin-3-yl)cyclopropanecarboxamide], for which the pIC50 in test [1] is less than 6.30. Besides, the pKd on TYK2 JH2 is no less than 7.00.
For the molecule `CNc1ncc(-c2ccc(Cl)cc2)c2cc(NC(=O)C3CC3)ncc12` [Example 16, N-(5-(4-chlorophenyl)-8-(methylamino)-2,7-naphthyridin-3-yl)cyclopropanecarboxamide], the pIC50 in test [1] was less than 6.30. Besides, the pKd on TYK2 JH2 was no less than 7.00.
In the case of `CNc1ncc(-c2ccccc2F)c2cc(NC(=O)C3CC3)ncc12` [Example 17, N-(5-(2-fluorophenyl)-8-(methylamino)-2,7-naphthyridin-3-yl)cyclopropanecarboxamide], in test [1], the pIC50 was less than 6.30. Besides, at TYK2 JH2, the pKd was no less than 7.00.
Taken in the same sequence, the figures for `CNc1ncc(-c2ccc(F)cc2)c2cc(NC(=O)C3CC3)ncc12` [Example 18, N-(5-(4-fluorophenyl)-8-(methylamino)-2,7-naphthyridin-3-yl)cyclopropanecarboxamide] were less than 6.30 and no less than 7.00.
Taken in the same sequence, the figures for `CCn1nccc1-c1cnc(NC)c2cnc(NC(=O)C3CC3)cc12` [Example 19, N-(5-(1-ethyl-1H-pyrazol-5-yl)-8-(methylamino)-2,7-naphthyridin-3-yl)cyclopropanecarboxamide] were less than 6.30 and no less than 7.00.
Taken in the same sequence, the figures for `CNc1ncc(-c2ccnn2Cc2ccccc2)c2cc(NC(=O)C3CC3)ncc12` [Example 20, N-(5-(1-benzyl-1H-pyrazol-5-yl)-8-(methylamino)-2,7-naphthyridin-3-yl)cyclopropanecarboxamide] were less than 6.30 and no less than 7.00.
For `CNc1ncc(-c2ccc3c(c2)OCO3)c2cc(NC(=O)C3CC3)ncc12` [Example 21, N-(5-(benzo[d][1,3]dioxol-5-yl)-8-(methylamino)-2,7-naphthyridin-3-yl)cyclopropanecarboxamide], the pIC50 in test [1] was less than 6.30. The pKd at TYK2 JH2 is no less than 7.00.
Taken in the same sequence, the figures for `CNc1ncc(-c2ccc(C)s2)c2cc(NC(=O)C3CC3)ncc12` [Example 22, N-(8-(methylamino)-5-(5-methylthiophen-2-yl)-2,7-naphthyridin-3-yl)cyclopropanecarboxamide] were less than 6.30 and no less than 7.00.
`CNc1ncc(-c2cc(C)n[nH]2)c2cc(NC(=O)C3CC3)ncc12` [Example 23, N-(5-(3-methyl-1H-pyrazol-5-yl)-8-(methylamino)-2,7-naphthyridin-3-yl)cyclopropanecarboxamide]: the pIC50 in test [1] is less than 6.30. The pKd at TYK2 JH2 was no less than 7.00.
As to `CNc1ncc(-c2cn[nH]c2)c2cc(NC(=O)C3CC3)ncc12` [Example 24, N-(8-(methylamino)-5-(1H-pyrazol-4-yl)-2,7-naphthyridin-3-yl)cyclopropanecarboxamide], the pIC50 in test [1] was less than 6.30. In addition, the pKd on TYK2 JH2 was no less than 7.00.
For the molecule `CNc1ncc(-c2cnn(C)c2)c2cc(NC(=O)C3CC3)ncc12` [Example 25, N-(5-(1-methyl-1H-pyrazol-4-yl)-8-(methylamino)-2,7-naphthyridin-3-yl)cyclopropanecarboxamide], the pIC50 in test [1] was less than 6.30. Moreover, the pKd on TYK2 JH2 is no less than 7.00.
For `CNc1ncc(-c2ncsc2C)c2cc(NC(=O)C3CC3)ncc12` [Example 26, N-(8-(methylamino)-5-(5-methylthiazol-4-yl)-2,7-naphthyridin-3-yl)cyclopropanecarboxamide] the same measures were less than 6.30 and no less than 7.00.
For `CNc1ncc(C)c2cc(NC(=O)C3CC3)ncc12` [Example 27, N-(5-methyl-8-(methylamino)-2,7-naphthyridin-3-yl)cyclopropanecarboxamide] the same measures were less than 6.30 and no less than 7.00.
For `CNc1ncc(C2CC2)c2cc(NC(=O)C3CC3)ncc12` [Example 28, N-(5-cyclopropyl-8-(methylamino)-2,7-naphthyridin-3-yl)cyclopropanecarboxamide] the same measures were less than 6.30 and no less than 7.00.
On to `CNc1ncc(-c2cccc(S(C)(=O)=O)c2)c2cc(NC(=O)C3CC3)ncc12` [Example 29, N-(8-(methylamino)-5-(3-(methylsulfonyl)phenyl)-2,7-naphthyridin-3-yl)cyclopropanecarboxamide], for which, in test [1], the pIC50 was less than 6.30. On TYK2 JH2, the pKd was no less than 7.00.
Taken in the same sequence, the figures for `CNc1ncc(-c2ocnc2C)c2cc(NC(=O)C3CC3)ncc12` [Example 30, N-(8-(methylamino)-5-(4-methyloxazol-5-yl)-2,7-naphthyridin-3-yl)cyclopropanecarboxamide] were less than 6.30 and no less than 7.00.
Taken in the same sequence, the figures for `CNc1ncc(CCc2ccccc2)c2cc(NC(=O)C3CC3)ncc12` [Example 31, N-(8-(methylamino)-5-phenethyl-2,7-naphthyridin-3-yl)cyclopropanecarboxamide] were less than 6.30 and no less than 7.00.
Regarding `CNc1ncc(-c2nc(C)co2)c2cc(NC(=O)C3CC3)ncc12` [Example 32, N-(8-(methylamino)-5-(4-methyloxazol-2-yl)-2,7-naphthyridin-3-yl)cyclopropanecarboxamide], the pIC50 in test [1] is no less than 6.30. The pKd at TYK2 JH2 was no less than 7.00.
On to `CNc1ncc(/C=C/c2ccccc2)c2cc(NC(=O)C3CC3)ncc12` [Example 33, (E)-N-(8-(methylamino)-5-styryl-2,7-naphthyridin-3-yl)cyclopropanecarboxamide], for which the pIC50 in test [1] was no less than 6.30. On TYK2 JH2, the pKd was no less than 7.00.
Taken in the same sequence, the figures for `CNc1ncc(Cc2ccc(OC)cc2)c2cc(NC(=O)C3CC3)ncc12` [Example 34, N-(5-(4-methoxybenzyl)-8-(methylamino)-2,7-naphthyridin-3-yl)cyclopropanecarboxamide] were less than 6.30 and 6.00 to 7.00.
Taken in the same sequence, the figures for `CNc1ncc(-c2ccccc2C)c2cc(NC(=O)C3CC3)ncc12` [Example 35, N-(8-(methylamino)-5-(o-tolyl)-2,7-naphthyridin-3-yl)cyclopropanecarboxamide] were less than 6.30 and no less than 7.00.
